Measured values from patent US9150575B2, “Piperidinylpyrazolopyridine derivative” (Daiichi Sankyo Company, Limited, priority 2012, dated 2015).

Key:
LCAT = target: T1, LCAT (Homo sapiens, UniProt P04180); test: LCAT Activity Measurement (In Vitro); assay type: biochemical; details: EC50 of LCAT activation; HDL3 fraction from plasma of a healthy person as enzyme source and acceptor; [14C]cholesterol; 37° C., approximately 16 hours
T1 construct: The obtained fraction was dialyzed against phosphate-buffered saline (pH 7.4) and used as an enzyme source and an acceptor for LCAT; from tissue; host or cells: HDL3 fraction (1.125<specific gravity<1.210 g/mL) of plasma from a healthy person
T1 sequence (P04180 25-440): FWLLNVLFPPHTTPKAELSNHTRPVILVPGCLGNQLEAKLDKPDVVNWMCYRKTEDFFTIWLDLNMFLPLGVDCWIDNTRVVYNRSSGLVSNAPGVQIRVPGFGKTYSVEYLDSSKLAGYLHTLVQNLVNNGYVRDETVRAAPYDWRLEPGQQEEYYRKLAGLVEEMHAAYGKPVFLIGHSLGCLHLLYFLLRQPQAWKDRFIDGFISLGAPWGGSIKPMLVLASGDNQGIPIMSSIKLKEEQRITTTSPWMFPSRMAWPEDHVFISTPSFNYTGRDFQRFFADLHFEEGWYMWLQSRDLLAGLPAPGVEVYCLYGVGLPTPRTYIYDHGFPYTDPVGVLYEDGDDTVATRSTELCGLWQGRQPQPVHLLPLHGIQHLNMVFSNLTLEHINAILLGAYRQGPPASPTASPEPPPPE
Summary of the method: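 Human plasma HDL3 (1 mg/mL, PBS pH 7.4) served as enzyme and acceptor with [14C]cholesterol, 0.5 mM DTNB, 12.5 mM mercaptoethanol and 0.6% BSA; compounds in DMSO, incubated ~16 h at 37 °C. Cholesterol oleate radioactivity quantified after extraction and TLC; EC50 of activation fitted relative to no-drug control.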

cynomolgus monkey = test: Drug Efficacy Test in Cynomolgus Monkeys; assay type: in vivo; details: oral, single dose of 10 mg/kg, compared with before administration, from AUC before administration and 24 hours after administration
Protocol: Each test drug was dissolved in a propylene glycol (Sigma-Aldrich Corp.)-Tween 80 (Sigma-Aldrich Corp.) mixed solution [4/1 (v/v)] or a 0.5% (w/v) methylcellulose aqueous solution, and the solution was orally administered to a cynomolgus monkey for 1 or 7 days. At 1 or 7 day of administration period, blood was collected before administration and after administration, and plasma was obtained. The content of cholesterol in the plasma was measured using a commercially available assay kit (Cholesterol-E Wako, Wako Pure Chemical Industries, Ltd.). The lipoprotein profile was analyzed by HPLC (column: LipopropakXL, manufactured by Tosoh Corp.). The contents of HDL cholesterol and non-HDL cholesterol were calculated according to the following calculation expression: Content of HDL cholesterol=Content of cholesterol in the plasma×(Peak area of HDL cholesterol/Total sum of peaks) Content of non-HDL cholesterol=Content of cholesterol in the plasma×(Peak area of non-HDL cholesterol/Total sum of peaks)
The rate (%) of increase in HDL level after the administration of a single dose of 10 mg/kg compared with before administration was determined from AUC before administration and 24 hours after administration.

EC50 (LCAT) | SMILES | Rate of increase in HDL level after administration of single dose (cynomolgus monkey)
0.045 µM | O=C1CC(O)(C(F)(F)F)c2c(C3CCN(c4ccc(Cl)cn4)CC3)n[nH]c2N1 (single isomer, unassigned; (-)) [Compound 50-1, (−)-3-[1-(5-Chloropyridin-2-yl)piperidin-4-yl]-4-hydroxy-4-(trifluoromethyl)-1,4,5,7-tetrahydro-6H-pyrazolo[3,4-b]pyridin-6-one] | 433%
0.048 µM | O=C1CC(O)(C(F)(F)F)c2c(C3CCN(c4cccc(C(F)(F)F)n4)CC3)n[nH]c2N1 (centres unmarked) [Example 7, 4-Hydroxy-4-(trifluoromethyl)-3-{1-[6-(trifluoromethyl)pyridin-2-yl]piperidin-4-yl}-1,4,5,7-tetrahydro-6H-pyrazolo[3,4-b]pyridin-6-one] | 334%
0.021 µM | O=C1CC(O)(C(F)(F)F)c2c(C3CCN(c4ccc(C(F)(F)F)cn4)CC3)n[nH]c2N1 (centres unmarked) [Example 8, 4-Hydroxy-4-(trifluoromethyl)-3-{1-[5-(trifluoromethyl)pyridin-2-yl]piperidin-4-yl}-1,4,5,7-tetrahydro-6H-pyrazolo[3,4-b]pyridin-6-one] | 531%
0.3 µM | O=C1CC(O)(C(F)(F)F)c2c(C3CCN(c4ccc(F)cc4)CC3)n[nH]c2N1 (centres unmarked) [Example 70, 3-[1-(4-Fluorophenyl)piperidin-4-yl]-4-hydroxy-4-(trifluoromethyl)-1,4,5,7-tetrahydro-6H-pyrazolo[3,4-b]pyridin-6-one] | 
0.064 µM | CC(C)Oc1ccc(N2CCC(c3n[nH]c4c3C(O)(C(F)(F)F)CC(=O)N4)CC2)nn1 (centres unmarked) [Example 17, 4-Hydroxy-3-{1-[6-(propan-2-yloxy)pyridazin-3-yl]piperidin-4-yl}-4-(trifluoromethyl)-1,4,5,7-tetrahydro-6H-pyrazolo[3,4-b]pyridin-6-one] | 
0.058 µM | COC(=O)c1nc(N2CCC(c3n[nH]c4c3C(O)(C(F)(F)F)CC(=O)N4)CC2)ccc1C(F)(F)F (centres unmarked) [Example 77, Methyl 6-{4-[4-hydroxy-6-oxo-4-(trifluoromethyl)-4,5,6,7-tetrahydro-1H-pyrazolo[3,4-b]pyridin-3-yl]piperidin-1-yl}-3-(trifluoromethyl)pyridine-2-carboxylate] | 
0.05 µM | O=C1CC(O)(C(F)(F)F)c2c(C3CCN(c4cncc(C(F)(F)F)c4)CC3)n[nH]c2N1 (centres unmarked) [Example 53, 4-Hydroxy-4-(trifluoromethyl)-3-{1-[5-(trifluoromethyl)pyridin-3-yl]piperidin-4-yl}-1,4,5,7-tetrahydro-6H-pyrazolo[3,4-b]pyridin-6-one] | 

The next lines start with the compound.

SMILES | EC50 (LCAT) | Rate of increase in HDL level after administration of single dose (cynomolgus monkey)
O=C1CC(O)(C(F)(F)F)c2c(C3CCN(c4ccc(OC(F)F)cc4)CC3)n[nH]c2N1 (single isomer, unassigned; (-)) [Compound 56-1, (−)-3-{1-[4-(Difluoromethoxy)phenyl]piperidin-4-yl}-4-hydroxy-4-(trifluoromethyl)-1,4,5,7-tetrahydro-6H-pyrazolo[3,4-b]pyridin-6-one] | 0.045 µM | 644%
O=C1CC(O)(C(F)(F)F)c2c(C3CCN(c4ncc(C(F)(F)F)cc4Cl)CC3)n[nH]c2N1 (centres unmarked) [Example 10, 3-{1-[3-Chloro-5-(trifluoromethyl)pyridin-2-yl]piperidin-4-yl}-4-hydroxy-4-(trifluoromethyl)-1,4,5,7-tetrahydro-6H-pyrazolo[3,4-b]pyridin-6-one] | 0.21 µM | 526%
O=C1CC(O)(C(F)(F)F)c2c(C3CCN(c4ccc(OC(F)F)nc4)CC3)n[nH]c2N1 (centres unmarked) [Example 54, 3-{1-[6-(Difluoromethoxy)pyridin-3-yl]piperidin-4-yl}-4-hydroxy-4-(trifluoromethyl)-1,4,5,7-tetrahydro-6H-pyrazolo[3,4-b]pyridin-6-one] | 0.07 µM | 
O=C1CC(O)(C(F)(F)F)c2c(C3CCN(c4nc5ccccc5s4)CC3)n[nH]c2N1 (centres unmarked) [Example 25, 3-[1-(1,3-Benzothiazol-2-yl)piperidin-4-yl]-4-hydroxy-4-(trifluoromethyl)-1,4,5,7-tetrahydro-6H-pyrazolo[3,4-b]pyridin-6-one] | 0.2 µM | 
CCOc1ccc(N2CCC(c3n[nH]c4c3C(O)(C(F)(F)F)CC(=O)N4)CC2)cc1 (centres unmarked) [Example 59, 3-[1-(4-Ethoxyphenyl)piperidin-4-yl]-4-hydroxy-4-(trifluoromethyl)-1,4,5,7-tetrahydro-6H-pyrazolo[3,4-b]pyridin-6-one] | 0.26 µM | 
